Reference: patent US20250333406A1, “SULFONYL CYCLIC DERIVATIVES, AND COMPOSITIONS AND METHODS THEREOF” (Lysoway Therapeutics, Inc., priority 2023, published 2025)

Tested on: TFEB
Assay: TFEB Nuclear Translocation Assay
Assay type: cell-based
Settings: read-out: EC50 of TFEB activation

SMILES | EC50
CC(C)S(=O)(=O)n1ccc(S(=O)(=O)n2nc(N3CCN(c4ncc(F)cn4)CC34CC4)c3c(F)cc(F)cc32)c1 [Compound 166, 4,6-difluoro-3-(7-(5-fluoropyrimidin-2-yl)-4,7-diazaspiro [2.5]octan-4-yl)-1-((1-(isopropylsulfonyl)-1H-pyrrol-3-yl)sulfonyl)-1H-indazole] | ≤ 1 µM
CC(C)S(=O)(=O)n1ccc(S(=O)(=O)n2nc(N3CCN(c4ncc(F)cn4)CC34CC4)c3c(F)cc(Cl)cc32)c1 [Compound 167, 6-chloro-4-fluoro-3-(7-(5-fluoropyrimidin-2-yl)-4,7-diazaspiro [2.5]octan-4-yl)-1-((1-(isopropylsulfonyl)-1H-pyrrol-3-yl)sulfonyl)-1H-indazole] | ≤ 1 µM
CC(C)S(=O)(=O)n1ccc(S(=O)(=O)n2nc(N3CCN(c4ncc(F)cc4F)CC34CC4)c3c(F)cc(Cl)cc32)c1 [Compound 168, 6-chloro-3-[7-(3,5-difluoro-2-pyridyl)-4,7-diazaspiro [2.5]octan-4-yl]-4-fluoro-1-(1-isopropylsulfonylpyrrol-3-yl) sulfonyl-indazole] | ≤ 1 µM
CN(C)S(=O)(=O)n1ccc(S(=O)(=O)n2nc(N3CCN(c4ncc(F)cn4)CC34CC4)c3c(F)cc(F)cc32)c1 [Compound 169, 3-[4,6-difluoro-3-[7-(5-fluoropyrimidin-2-yl)-4,7-diazaspiro [2.5]octan-4-yl]indazol-1-yl]sulfonyl-N, N-dimethyl-pyrrole-1-sulfonamide] | ≤ 1 µM
CN(C)S(=O)(=O)n1ccc(S(=O)(=O)n2nc(N3CCN(c4ncc(F)cn4)CC34CC4)c3c(Cl)cc(F)cc32)c1 [Compound 170, 3-[4-chloro-6-fluoro-3-[7-(5-fluoropyrimidin-2-yl)-4,7-diazaspiro [2.5]octan-4-yl]indazol-1-yl]sulfonyl-N, N-dimethyl-pyrrole-1-sulfonamide] | ≤ 1 µM
CC(C)(C)S(=O)(=O)n1ccc(S(=O)(=O)n2nc(N3CCN(c4ncc(F)cn4)CC34CC4)c3c(Cl)cc(F)cc32)c1 [Compound 171, 1-((1-(tert-butylsulfonyl)-1H-pyrrol-3-yl)sulfonyl)-4-chloro-6-fluoro-3-(7-(5-fluoropyrimidin-2-yl)-4,7-diazaspiro [2.5]octan-4-yl)-1H-indazole] | ≤ 1 µM
CC(C)(C)S(=O)(=O)n1ccc(S(=O)(=O)n2nc(N3CCN(c4ncc(F)cn4)CC34CC4)c3c(F)cc(F)cc32)c1 [Compound 172, 1-((1-(tert-butylsulfonyl)-1H-pyrrol-3-yl)sulfonyl)-4,6-difluoro-3-(7-(5-fluoropyrimidin-2-yl)-4,7-diazaspiro [2.5]octan-4-yl)-1H-indazole] | ≤ 1 µM
O=S(=O)(c1ccn(S(=O)(=O)C2CC2)c1)n1nc(N2CCN(c3ncc(F)cn3)CC23CC3)c2c(Cl)cc(F)cc21 [Compound 173, 4-chloro-1-((1-(cyclopropylsulfonyl)-1H-pyrrol-3-yl)sulfonyl)-6-fluoro-3-(7-(5-fluoropyrimidin-2-yl)-4,7-diazaspiro [2.5]octan-4-yl)-1H-indazole] | ≤ 1 µM
O=S(=O)(c1ccn(S(=O)(=O)C2CC2)c1)n1nc(N2CCN(c3ncc(F)cn3)CC23CC3)c2c(F)cc(F)cc21 [Compound 174, 1-((1-(cyclopropylsulfonyl)-1H-pyrrol-3-yl)sulfonyl)-4,6-difluoro-3-(7-(5-fluoropyrimidin-2-yl)-4,7-diazaspiro [2.5]octan-4-yl)-1H-indazole] | ≤ 1 µM
CC(C)S(=O)(=O)n1ccc(S(=O)(=O)n2nc(N3CCN(c4ccc(F)cc4)CC34CC4)c3c(Cl)cc(F)cc32)c1 [Compound 175, 4-chloro-6-fluoro-3-(7-(4-fluorophenyl)-4,7-diazaspiro [2.5]octan-4-yl)-1-((1-(isopropylsulfonyl)-1H-pyrrol-3-yl)sulfonyl)-1H-indazole] | ≤ 1 µM
CC(C)S(=O)(=O)n1ccc(S(=O)(=O)n2nc(N3CCC(N(C)C)CC34CC4)c3c(Cl)cc(F)cc32)c1 (stereo not shown) [Compound 186, 4-[4-chloro-6-fluoro-1-(1-isopropylsulfonylpyrrol-3-yl)sulfonyl-indazol-3-yl]-N, N-dimethyl-4-azaspiro [2.5]octan-7-amine] | 1 to 10 µM

The next lines start with the values.

EC50 | SMILES
≥ 10 µM | CC(C)S(=O)(=O)n1ccc(S(=O)(=O)n2nc(N3CCN(c4ccncc4)CC34CC4)c3c(Cl)cc(F)cc32)c1 [Compound 176, 4-chloro-6-fluoro-1-(1-isopropylsulfonylpyrrol-3-yl) sulfonyl-3-[7-(4-pyridyl)-4,7-diazaspiro [2.5]octan-4-yl]indazole]
≤ 1 µM | CC(C)S(=O)(=O)n1ccc(S(=O)(=O)n2nc(N3CCN(c4ncc(F)cn4)C[C@@H]3C)c3c(Cl)cc(F)cc32)c1 [Compound 177, 4-chloro-6-fluoro-3-[(2S)-4-(5-fluoropyrimidin-2-yl)-2-methyl-piperazin-1-yl]-1-(1-isopropylsulfonylpyrrol-3-yl) sulfonyl-indazole]
≤ 1 µM | CC(C)S(=O)(=O)n1ccc(S(=O)(=O)n2nc(N3CCN(c4ncc(F)cn4)C[C@H]3C)c3c(Cl)cc(F)cc32)c1 [Compound 178, 4-chloro-6-fluoro-3-[(2R)-4-(5-fluoropyrimidin-2-yl)-2-methyl-piperazin-1-yl]-1-(1-isopropylsulfonylpyrrol-3-yl) sulfonyl-indazole]
≤ 1 µM | CC(C)S(=O)(=O)n1ccc(S(=O)(=O)n2nc(N3CCN(c4ncc(F)cn4)CC34CCC4)c3c(Cl)cc(F)cc32)c1 [Compound 179, 4-chloro-6-fluoro-3-(8-(5-fluoropyrimidin-2-yl)-5,8-diazaspiro [3.5]nonan-5-yl)-1-((1-(isopropylsulfonyl)-1H-pyrrol-3-yl)sulfonyl)-1H-indazole]
≤ 1 µM | [2H]c1c(S(=O)(=O)n2nc(N3CCN(c4ncc(F)cn4)CC34CC4)c3c(Cl)cc(F)cc32)c([2H])n(S(=O)(=O)C(C)C)c1[2H] [Compound 180, 4-chloro-6-fluoro-3-[7-(5-fluoropyrimidin-2-yl)-4,7-diazaspiro [2.5]octan-4-yl]-1-(2,4,5-trideuterio-1-isopropylsulfonyl-pyrrol-3-yl) sulfonyl-indazole]
≤ 1 µM | [2H]c1c(S(=O)(=O)n2nc(N3CCN(c4ncc(F)cn4)CC34CC4)c3c(Cl)cc(F)cc32)c([2H])n(S(=O)(=O)C(C)(C)Cl)c1[2H] [Compound 181, 4-chloro-1-[1-(1-chloro-1-methyl-ethyl)sulfonyl-2,4,5-trideuterio-pyrrol-3-yl]sulfonyl-6-fluoro-3-[7-(5-fluoropyrimidin-2-yl)-4,7-diazaspiro[2.5]octan-4-yl]indazole]
≤ 1 µM | CC(C)S(=O)(=O)n1ccc(S(=O)(=O)n2nc(N3CCN(c4c(F)cccc4F)CC34CC4)c3c(Cl)cc(F)cc32)c1 [Compound 182, 4-chloro-3-(7-(2,6-difluorophenyl)-4,7-diazaspiro [2.5]octan-4-yl)-6-fluoro-1-((1-(isopropylsulfonyl)-1H-pyrrol-3-yl)sulfonyl)-1H-indazole]
1 to 10 µM | CC(C)S(=O)(=O)n1ccc(S(=O)(=O)n2nc(N3CCN(S(C)(=O)=O)CC34CC4)c3c(Cl)cc(F)cc32)c1 [Compound 183, 4-chloro-6-fluoro-1-((1-(isopropylsulfonyl)-1H-pyrrol-3-yl)sulfonyl)-3-(7-(methylsulfonyl)-4,7-diazaspiro [2.5]octan-4-yl)-1H-indazole]
≤ 1 µM | CC(C)S(=O)(=O)n1ccc(S(=O)(=O)n2nc(N3CCCC3C(F)(F)F)c3c(Cl)cc(F)cc32)c1 (stereo not shown) [Compound 184, 4-chloro-6-fluoro-1-(1-isopropylsulfonylpyrrol-3-yl)sulfonyl-3-[2-(trifluoromethyl)pyrrolidin-1-yl]indazole]
≤ 1 µM | CC(C)S(=O)(=O)n1ccc(S(=O)(=O)n2nc(N3CCN(c4ncc(F)cn4)CC3(C)C)c3c(Cl)cc(F)cc32)c1 [Compound 185, 4-chloro-6-fluoro-3-[4-(5-fluoropyrimidin-2-yl)-2,2-dimethyl-piperazin-1-yl]-1-(1-isopropylsulfonylpyrrol-3-yl) sulfonyl-indazole]
≤ 1 µM | CC(C)S(=O)(=O)n1ccc(S(=O)(=O)n2nc(N3CCC(=O)CC34CC4)c3c(Cl)cc(F)cc32)c1 [Compound 187, 4-[4-chloro-6-fluoro-1-(1-isopropylsulfonylpyrrol-3-yl)sulfonyl-indazol-3-yl]-4-azaspiro [2.5]octan-7-one]
≤ 1 µM | CC(C)S(=O)(=O)n1ccc(S(=O)(=O)n2nc(N3CCCC34CC4)c3c(Cl)cc(F)cc32)c1 [Compound 188, 3-(4-azaspiro [2.4]heptan-4-yl)-4-chloro-6-fluoro-1-(1-isopropylsulfonylpyrrol-3-yl) sulfonyl-indazole]
≤ 1 µM | CC(C)S(=O)(=O)n1ccc(S(=O)(=O)n2nc(N3CCC34CCC4)c3c(Cl)cc(F)cc32)c1 [Compound 189, 3-(1-azaspiro [3.3]heptan-1-yl)-4-chloro-6-fluoro-1-(1-isopropylsulfonylpyrrol-3-yl) sulfonyl-indazole]
≤ 1 µM | CC(C)S(=O)(=O)n1ccc(S(=O)(=O)n2nc(N3CCOCC34CC4)c3c(Cl)cc(F)cc32)c1 [Compound 190, 4-[4-chloro-6-fluoro-1-(1-isopropylsulfonylpyrrol-3-yl)sulfonyl-indazol-3-yl]-7-oxa-4-azaspiro [2.5]octane]
≤ 1 µM | CC(C)S(=O)(=O)n1ccc(S(=O)(=O)n2nc(N3CCC(F)(F)CC34CC4)c3c(Cl)cc(F)cc32)c1 [Compound 191, 4-chloro-3-(7,7-difluoro-4-azaspiro [2.5]octan-4-yl)-6-fluoro-1-(1-isopropylsulfonylpyrrol-3-yl) sulfonyl-indazole]
≤ 1 µM | CC(C)S(=O)(=O)n1ccc(S(=O)(=O)n2nc(N3CCC(F)CC34CC4)c3c(Cl)cc(F)cc32)c1 (stereo not shown) [Compound 192, 4-chloro-6-fluoro-3-(7-fluoro-4-azaspiro [2.5]octan-4-yl)-1-(1-isopropylsulfonylpyrrol-3-yl) sulfonyl-indazole]
1 to 10 µM | CC(C)S(=O)(=O)c1nc(S(=O)(=O)n2nc(N3CCN(c4ncc(Cl)cc4F)CC34CC4)c3c(F)ccc(F)c32)cs1 [Compound 193, 4-[3-[7-(5-chloro-3-fluoro-2-pyridyl)-4,7-diazaspiro [2.5]octan-4-yl]-4,7-difluoro-indazol-1-yl]sulfonyl-2-isopropylsulfonyl-thiazole]
